# In patent US8575091B1, “Amylin analogues and pharmaceutical compositions thereof” (Novo Nordisk A/S, priority 2012, dated 2013):
# Numbered stars: 1 amine (or outer) side, 2 acyl side, 3 side chain; on linkers, the order of the positions; unused ones are H or OH. Bridge positions count the residues as written; N and C are the ends. Side chains are listed from the residue outwards. Peptide text beside a SMILES is read from it. * marks the point of attachment. C20 diacid = O=C(O)CCCCCCCCCCCCCCCCCCC(=O)*; γGlu = O=C(O)[C@H](CCC(=O)[*:2])N[*:1]
# Columns and labels:
# human amylin receptor = target: T1, human amylin receptor (Homo sapiens, UniProt O60896+P30988); test: Assay (V) binding to the human amylin receptor (SPA, 125I-rat amylin)
# T1 construct: expressed in transfected cells
# T1 sequence (P30988 25-474): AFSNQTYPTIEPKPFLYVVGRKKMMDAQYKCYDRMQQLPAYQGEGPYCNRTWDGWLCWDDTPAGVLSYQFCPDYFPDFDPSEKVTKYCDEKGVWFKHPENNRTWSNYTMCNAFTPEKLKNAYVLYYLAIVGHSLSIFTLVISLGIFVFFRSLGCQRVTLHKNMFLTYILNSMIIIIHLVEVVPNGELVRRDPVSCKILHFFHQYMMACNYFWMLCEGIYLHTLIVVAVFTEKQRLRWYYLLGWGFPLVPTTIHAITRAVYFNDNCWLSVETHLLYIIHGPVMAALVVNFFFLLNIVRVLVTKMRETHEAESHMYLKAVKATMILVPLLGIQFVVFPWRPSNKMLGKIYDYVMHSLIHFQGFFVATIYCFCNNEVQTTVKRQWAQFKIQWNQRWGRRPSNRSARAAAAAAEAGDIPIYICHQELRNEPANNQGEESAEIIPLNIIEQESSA
# T1 sequence (O60896 24-148 partner): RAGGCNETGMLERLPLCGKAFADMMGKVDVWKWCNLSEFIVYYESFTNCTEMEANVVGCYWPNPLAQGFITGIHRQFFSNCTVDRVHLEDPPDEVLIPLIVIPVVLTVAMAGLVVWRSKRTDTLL
# Description: The binding assay was performed using scintillation proximity assay (SPA) beads (RPNQ0001) from PerkinElmer and cell membranes from the Amylin 3(a)/CRE-luc cells (as described in Assay (II)) were used. Membranes were prepared in the following way; the cells were rinsed with PBS and incubated with Versene for approximately 5 min before harvesting. The cells were flushed with PBS and the cell-suspension was centrifuged for 5 min at 1000 rpm. […] The resulting pellet was resuspended in buffer 2 and protein concentration was measured (BCA protein Assay, Pierce). The homogenate was kept cold during the whole procedure. The membranes were kept at −80° C. until use. The assay was performed in a 384 well Optiplate (PerkinElmer) in a total volume of 40 ul. Membranes were mixed with SPA beads. Final concentration of membranes 35 ng/μL final and SPA beads was 0.05 mg/well. Test-compounds were dissolved in DMSO and further diluted in assay buffer (50 mM Hepes, pH 7.4, 1 mM CaCl2, 5 mM MgCl2, 0.1% OA and 0.02% Tween20). […] Samples were analyzed on TopCounter™ (Packard). The IC50 was calculated using (one site binding competition analysis) GraphPad Prism5 as a measure of receptor affinity.
# [1] = target: T2, human amylin receptor (amylin 3(a) receptor: human calcitonin receptor + RAMP-3) (Homo sapiens, UniProt O60896+P30988); test: Assay (II)a functional assay, human amylin receptor (CRE luciferase, BHK cells); type: cell-based
# T2 construct: expressed in transfected cells
# T2 sequence (P30988 25-474): T1 sequence (P30988 25-474)
# T2 sequence (O60896 24-148 partner): T1 sequence (O60896 24-148 partner)
# [2] = Table 7b, human calcitonin receptor binding IC50 divided by human amylin receptor binding IC50
# [3] = Table 7c, human calcitonin receptor binding IC50 divided by human amylin receptor binding IC50
# [4] = human binding ratio, included for comparison
# [5] = Table 6, human functional selectivity (hCTR EC50 / hAmylin-R EC50)
# [6] = Table 6a, human functional selectivity (hCTR EC50 / hAmylin-R EC50), at least 5
# [7] = Table 6j, hCTR funct. EC50 / hAmylin-R funct. EC50
# [8] = Table 6k, hCTR funct. EC50 / hAmylin-R funct. EC50
"IC50 (human amylin receptor; human amylin receptor membranes, SPA, read-out: hAmylin-R bind IC50) [nM]",Ratio hCT/hAmylin binding (human amylin receptor; [2]),Ratio hCT/hAmylin binding (human amylin receptor; [3]),Ratio hCT/hAmylin binding (human amylin receptor; [4]),"Ratio hCT/hAmylin funct. [1, 5]","Ratio hCT/hAmylin funct. [1, 6]","Ratio hCT/hAmylin funct. ([1]; Table 6i, hCTR funct. EC50 / hAmylin-R funct. EC50)","Ratio hCT/hAmylin funct. [1, 7]","Ratio hCT/hAmylin funct. [1, 8]",SMILES
0.249,–,–,–,–,–,–,–,–,CC[C@H](C)[C@H](NC(=O)[C@H](C)NC(=O)CNC(=O)[C@H](Cc1ccccc1)NC(=O)[C@H](CC(N)=O)NC(=O)[C@@H]1CCCN1C(=O)[C@H](CO)NC(=O)[C@H](CO)NC(=O)[C@H](Cc1c[nH]cn1)NC(=O)[C@H](CCCNC(=N)N)NC(=O)[C@H](CC(C)C)NC(=O)[C@H](Cc1ccccc1)NC(=O)[C@H](CC(N)=O)NC(=O)[C@H](C)NC(=O)[C@H](CC(C)C)NC(=O)[C@H](CCCNC(=N)N)NC(=O)[C@H](CCC(N)=O)NC(=O)[C@@H](NC(=O)[C@H](C)NC(=O)[C@@H]1CSSC[C@H](NC(=O)[C@@H](N)CCCCNC(=O)COCCOCCNC(=O)CC[C@H](NC(=O)CCCCCCCCCCCCCCCCCCC(=O)O)C(=O)O)C(=O)N[C@@H](CC(N)=O)C(=O)N[C@@H]([C@@H](C)O)C(=O)N[C@@H](C)C(=O)N[C@@H]([C@@H](C)O)C(=O)N1)[C@@H](C)O)C(=O)N1CCC[C@H]1C(=O)N[C@@H](CO)C(=O)N[C@@H](CO)C(=O)N[C@H](C(=O)N[C@@H](CC(N)=O)C(=O)N[C@H](C(=O)NCC(=O)N[C@@H](CO)C(=O)N[C@@H](CCCNC(=N)N)C(=O)N[C@H](C(=O)N[C@@H](Cc1ccc(O)cc1)C(N)=O)[C@@H](C)O)C(C)C)[C@@H](C)O [Example 38]
–,29.0,29.0,29.0,–,–,–,–,–,CC[C@H](C)[C@H](NC(=O)[C@H](C)NC(=O)CNC(=O)[C@H](Cc1ccccc1)NC(=O)[C@H](CC(N)=O)NC(=O)[C@@H]1CCCN1C(=O)[C@H](CO)NC(=O)[C@H](CO)NC(=O)[C@H](Cc1c[nH]cn1)NC(=O)[C@H](CCCNC(=N)N)NC(=O)[C@H](CC(C)C)NC(=O)[C@H](Cc1ccccc1)NC(=O)[C@H](CC(N)=O)NC(=O)[C@H](C)NC(=O)[C@H](CC(C)C)NC(=O)[C@H](CCCNC(=N)N)NC(=O)[C@H](CCC(N)=O)NC(=O)[C@@H](NC(=O)[C@H](C)NC(=O)[C@@H]1CSSC[C@H](NC(=O)[C@H](CCCCN)NC(=O)CC[C@H](NC(=O)CCCCCCCCCCCCCCCCCCC(=O)O)C(=O)O)C(=O)N[C@@H](CC(N)=O)C(=O)N[C@@H]([C@@H](C)O)C(=O)N[C@@H](C)C(=O)N[C@@H]([C@@H](C)O)C(=O)N1)[C@@H](C)O)C(=O)N1CCC[C@H]1C(=O)N[C@@H](CO)C(=O)N[C@@H](CO)C(=O)N[C@H](C(=O)N[C@@H](CC(N)=O)C(=O)N[C@H](C(=O)NCC(=O)N[C@@H](CCCNC(=N)N)C(=O)N[C@@H](CC(N)=O)C(=O)N[C@H](C(=O)N[C@@H](Cc1ccc(O)cc1)C(N)=O)[C@@H](C)O)C(C)C)[C@@H](C)O [Example 39] ({C20 diacid-γGlu}-KCNTATCATQRLANFLRHSSPNFGAIPSSTNVGRNTY-NH2; disulfide 2-7)
–,63.0,63.0,63.0,–,–,–,–,–,CC[C@H](C)[C@H](NC(=O)[C@H](C)NC(=O)CNC(=O)[C@H](Cc1ccccc1)NC(=O)[C@H](CC(N)=O)NC(=O)[C@@H]1CCCN1C(=O)[C@H](CO)NC(=O)[C@H](CO)NC(=O)[C@H](Cc1c[nH]cn1)NC(=O)[C@H](CCCNC(=N)N)NC(=O)[C@H](CC(C)C)NC(=O)[C@H](Cc1ccccc1)NC(=O)[C@H](Cc1c[nH]cn1)NC(=O)[C@H](C)NC(=O)[C@H](CC(C)C)NC(=O)[C@H](CCCNC(=N)N)NC(=O)[C@H](CCC(N)=O)NC(=O)[C@@H](NC(=O)[C@H](C)NC(=O)[C@@H]1CSSC[C@H](NC(=O)[C@@H](N)CCCCNC(=O)CC[C@H](NC(=O)CCCCCCCCCCCCCCCCCCC(=O)O)C(=O)O)C(=O)N[C@@H](CC(N)=O)C(=O)N[C@@H]([C@@H](C)O)C(=O)N[C@@H](C)C(=O)N[C@@H]([C@@H](C)O)C(=O)N1)[C@@H](C)O)C(=O)N1CCC[C@H]1C(=O)N[C@@H](CO)C(=O)N[C@@H](CO)C(=O)N[C@H](C(=O)N1CCC[C@H]1C(=O)N[C@H](C(=O)NCC(=O)N[C@@H](CO)C(=O)N[C@@H](CC(N)=O)C(=O)N[C@H](C(=O)N[C@@H](Cc1ccc(O)cc1)C(N)=O)[C@@H](C)O)C(C)C)[C@@H](C)O [Example 62] (H-K([γGlu-C20 diacid])CNTATCATQRLAHFLRHSSPNFGAIPSSTPVGSNTY-NH2; disulfide 2-7; N-terminus assumed)
–,–,–,–,6.5,6.5,6.5,6.5,6.5,CC[C@H](C)[C@H](NC(=O)[C@H](C)NC(=O)CNC(=O)[C@H](Cc1ccccc1)NC(=O)[C@H](CC(N)=O)NC(=O)[C@@H]1CCCN1C(=O)[C@H](CO)NC(=O)[C@H](CO)NC(=O)[C@H](Cc1c[nH]cn1)NC(=O)[C@H](CCCNC(=N)N)NC(=O)[C@H](CC(C)C)NC(=O)[C@H](Cc1ccccc1)NC(=O)[C@H](CCC(=O)O)NC(=O)[C@H](C)NC(=O)[C@H](CC(C)C)NC(=O)[C@H](CCCNC(=N)N)NC(=O)[C@H](CCC(N)=O)NC(=O)[C@@H](NC(=O)[C@H](C)NC(=O)[C@@H]1CSSC[C@H](NC(=O)[C@@H](N)CCCCNC(=O)CC[C@H](NC(=O)CCCCCCCCCCCCCCCCCCC(=O)O)C(=O)O)C(=O)N[C@@H](CC(N)=O)C(=O)N[C@@H]([C@@H](C)O)C(=O)N[C@@H](C)C(=O)N[C@@H]([C@@H](C)O)C(=O)N1)[C@@H](C)O)C(=O)N1CCC[C@H]1C(=O)N[C@@H](CO)C(=O)N[C@@H](CO)C(=O)N[C@H](C(=O)N[C@@H](CC(N)=O)C(=O)N[C@H](C(=O)NCC(=O)N[C@@H](CCCNC(=N)N)C(=O)N[C@@H](CCC(=O)O)C(=O)N[C@H](C(=O)N[C@@H](Cc1ccc(O)cc1)C(N)=O)[C@@H](C)O)C(C)C)[C@@H](C)O [Example 108] (H-K([γGlu-C20 diacid])CNTATCATQRLAEFLRHSSPNFGAIPSSTNVGRETY-NH2; disulfide 2-7 (inferred); N-terminus and C-terminus assumed)
–,–,–,–,8.1,8.1,–,8.1,8.1,CC[C@H](C)[C@H](NC(=O)[C@H](C)NC(=O)CNC(=O)[C@H](Cc1ccccc1)NC(=O)[C@H](CC(N)=O)NC(=O)[C@@H]1CCCN1C(=O)[C@H](CO)NC(=O)[C@H](CO)NC(=O)[C@H](Cc1c[nH]cn1)NC(=O)[C@H](CCCNC(=N)N)NC(=O)[C@H](CC(C)C)NC(=O)[C@H](Cc1ccccc1)NC(=O)[C@H](CO)NC(=O)[C@H](C)NC(=O)[C@H](CC(C)C)NC(=O)[C@H](CCCNC(=N)N)NC(=O)[C@H](CCC(N)=O)NC(=O)[C@@H](NC(=O)[C@H](C)NC(=O)[C@@H]1CSSC[C@H](NC(=O)[C@@H](N)CCCCNC(=O)CC[C@H](NC(=O)CC[C@H](NC(=O)CCCCCCCCCCCCCCCCCCC(=O)O)C(=O)O)C(=O)O)C(=O)N[C@@H](CC(N)=O)C(=O)N[C@@H]([C@@H](C)O)C(=O)N[C@@H](C)C(=O)N[C@@H]([C@@H](C)O)C(=O)N1)[C@@H](C)O)C(=O)N1CCC[C@H]1C(=O)N[C@@H](CO)C(=O)N[C@@H](CO)C(=O)N[C@H](C(=O)N[C@@H](CC(N)=O)C(=O)N[C@H](C(=O)NCC(=O)N1CCC[C@H]1C(=O)N[C@@H](CCC(=O)O)C(=O)N[C@H](C(=O)N[C@@H](Cc1ccc(O)cc1)C(N)=O)[C@@H](C)O)C(C)C)[C@@H](C)O [Example 120] (H-K([γGlu-γGlu-C20 diacid])CNTATCATQRLASFLRHSSPNFGAIPSSTNVGPETY-NH2; disulfide 2-7 (inferred); N-terminus and C-terminus assumed)
